Measured values published in US7294625B2, “Pyrazole compounds” (Ube Industries, Ltd., priority 2002, dated 2007).
pIC50: −log10 of the molar value.

target: T1, p38MAP kinase (Homo sapiens, UniProt Q16539); assay: Enzyme inhibitory test against p38MAP kinase; assay type: biochemical; details: active type p38MAP kinase, EGFR peptide substrate, [γ-32P]ATP, 30° C. 30 minutes; read-out: p38MAP kinase inhibition IC50 value
T1 construct: purchased Stratagene (p38MAP kinase); Upstate (SKK/MKK6) #206145 (p38MAP kinase); #14-225 or #14-303 (SKK/MKK6)
Procedure: Test Example 1 Enzyme Inhibitory Test Against p38MAP Kinase
(1) Preparatoin of Active Type p38MAP Kinase
An active type p38MAP kinase was prepared by incubation in a reaction solution (25 mM Tris-HCl pH 7.5, 5 mM β-glycerolphosphate, 2 mM DTT, 0.1 mM […], 10 mM MgCl2, 1 mM ATP) containing p38MAP kinase (Stratagene, #206145) and SKK/MKK6 (Upstate, #14-225 or #14-303) at 30° C. for 1 to 3 hours. This enzyme solution was diluted 5 to 10-fold with Stock Buffer (50 mM Tris-HCl pH 7.5, 0.1 mM EGTA, 0.2 mM Orthovanadate, 0.1% 2-ME, 10% glycerol, 0.03% Brij-35, 0.5 μM Microcystin), and preserved under freezing (−80° C.).
(2) Measurement of Inhibitory Activity of p38MAP Kinase
To 34 μL of a reaction solution (25 mM HEPES, pH 7.5, 10 mM Magnesium acetate) containing the active type p38MAP kinase prepared as mentioned above and a substrate (final concentration: […] EGFR; […]) was added 1 μL of DMSO, or a compound to be tested and dissolved in DMSO, then, the mixture was subjected to preincubation at 4° C. for 30 minutes. A reaction was started by adding 5 μL of an ATP solution (400 μM ATP, 1 μCi/μL [γ-^32P]ATP), and reacted at 30° C. for 30 minutes, and then, the reaction was stopped by adding 5 μL of 250 mM H3PO4. 25 μL of the reaction solution was placed on chromatography paper (Whatman, #P81), dried for about 2 minutes, and washed with 75 mM H3PO4. Water was removed by using 95% ethanol, it was transferred to a bial containing liquid scintillation cocktail (available from Nacalai Tesque), and radioactivity was measured. A concentration (IC50 value) of a compound to be tested necessary for inhibiting 50% of phosphrylation (^32P) of the substrate by the enzyme was calculated as compared to that non-treated by the compound to be tested by XL-fit (available from IDBS).

T1 sequence (Q16539 whole entry): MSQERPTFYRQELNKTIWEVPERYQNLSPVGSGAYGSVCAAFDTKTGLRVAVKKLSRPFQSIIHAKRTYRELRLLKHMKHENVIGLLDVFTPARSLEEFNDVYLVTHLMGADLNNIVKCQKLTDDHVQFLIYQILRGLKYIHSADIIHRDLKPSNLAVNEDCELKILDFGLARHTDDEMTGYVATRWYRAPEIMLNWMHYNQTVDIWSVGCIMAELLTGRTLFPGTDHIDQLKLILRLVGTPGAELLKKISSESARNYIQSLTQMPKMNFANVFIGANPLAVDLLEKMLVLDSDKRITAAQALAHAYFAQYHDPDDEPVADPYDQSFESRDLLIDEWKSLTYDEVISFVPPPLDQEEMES

Point of comparison: CC(=O)Nc1cc(-c2cn(C3=NNC(=O)CC3)nc2-c2ccccc2F)ccn1 [Example 62, 4-(2-Acetylaminopyridin-4-yl)-3-(2-fluorophenyl)-1-(1,4,5,6-tetrahydro-6-oxopyridazin-3-yl)-1H-pyrazole], pIC50 8.89. Against it:
- O=c1ccc(-n2cc(-c3ccncc3)c(-c3ccc(F)cc3)n2)n[nH]1 [Example 1, 3-(4-Fluorophenyl)-1-(1,6-dihydro-6-oxopyridazin-3-yl)-4-(pyridin-4-yl)-1H-pyrazole] — 0.84 log units lower, 8.05
- Nc1cc(-c2cn(-c3cc(N)c(=O)[nH]n3)nc2-c2ccc(F)cc2)ccn1 [Example 4, 1-(5-Amino-1,6-dihydro-6-oxopyridazin-3-yl)-4-(2-aminopyridin-4-yl)-3-(4-fluorophenyl)-1H-pyrazole] — 0.29 log units lower, 8.60
- CC(=O)Nc1cc(-c2cn(-c3ccc4nncn4n3)nc2-c2ccc(F)cc2)ccn1 [Example 9, 4-(2-Acetylaminopyridin-4-yl)-3-(4-fluorophenyl)-1-([1,2,4]triazolo[4,3-b]pyridazin-6-yl)-1H-pyrazole] — 0.62 log units lower, 8.27
- COC(=O)Nc1cc(-c2cn(-c3ccc4nncn4n3)nc2-c2ccc(F)cc2)ccn1 [Example 11, 3-(4-Fluorophenyl)-4-(2-methoxycarbonylaminopyridin-4-yl)-1-([1,2,4]triazolo[4,3-b]pyridazin-6-yl)-1H-pyrazole] — 0.68 log units lower, 8.21
- CC(Nc1cc(-c2cn(-c3ccc4nncn4n3)nc2-c2ccc(F)cc2)ccn1)c1ccccc1 (centres unmarked) [Example 18, 3-(4-Fluorophenyl)-4-[2-(1-phenethylamino)pyridin-4-yl]-1-([1,2,4]triazolo[4,3-b]pyridazin-6-yl)-1H-pyrazole] — 0.46 log units lower, 8.43
- Nc1cc(-c2cn(-c3ccc(=O)[nH]n3)nc2-c2cccc(F)c2)ccn1 [Example 22, 4-(2-Aminopyridin-4-yl)-3-(3-fluorophenyl)-1-(1,6-dihydro-6-oxopyridazin-3-yl)-1H-pyrazole] — 0.71 log units lower, 8.18
- Nc1cc(-c2cn(-c3ccc(=O)[nH]n3)nc2-c2cccc(C(F)(F)F)c2)ccn1 [Example 25, 4-(2-Aminopyridin-4-yl)-1-(1,6-dihydro-6-oxopyridazin-3-yl)-3-(3-trifluoromethylphenyl)-1H-pyrazole] — 0.66 log units lower, 8.23
- CCNc1cc(-c2cn(-c3ccc(=O)[nH]n3)nc2-c2ccc(F)cc2)ccn1 [Example 27, 4-(2-Ethylaminopyridin-4-yl)-3-(4-fluorophenyl)-1-(1,6-dihydro-6-oxopyridazin-3-yl)-1H-pyrazole] — the same, 8.89
- Cc1cc(-n2cc(-c3ccnc(N)c3)c(-c3ccc(F)cc3)n2)n[nH]c1=O [Example 32, 4-(2-Aminopyridin-4-yl)-3-(4-fluorophenyl)-1-(1,6-dihydro-5-methyl-6-oxopyridazin-3-yl)-1H-pyrazole] — 0.42 log units lower, 8.47
- O=c1ccc(-n2cc(-c3ccnc(NCC(F)(F)F)c3)c(-c3ccccc3F)n2)n[nH]1 [Example 34, 3-(2-Fluorophenyl)-1-(1,6-dihydro-6-oxopyridazin-3-yl)-4-[2-(2,2,2-trifluoroethyl)aminopyridin-4-yl]-1H-pyrazole] — 0.81 log units higher, 9.70
- Nc1cc(-c2cn(-c3ccc4nncn4n3)nc2-c2ccc(F)c(F)c2)ccn1 [Example 40, 4-(2-Aminopyridin-4-yl)-3-(3,4-difluorophenyl)-1-([1,2,4]triazolo[4,3-b]pyridazin-6-yl)-1H-pyrazole] — 0.83 log units lower, 8.06
- O=C(Nc1cc(-c2cn(-c3ccc4nncn4n3)nc2-c2ccc(F)cc2)ccn1)C1CCCC1 [Example 45, 4-(2-Cyclopentylcarbonylaminopyridin-4-yl)-3-(4-fluorophenyl)-1-([1,2,4]triazolo[4,3-b]pyridazin-6-yl)-1H-pyrazole] — 0.58 log units lower, 8.31
- CC(=O)Nc1cc(-c2cn(C3=NNC(=O)CC3)nc2-c2ccc(F)cc2)ccn1 [Example 57, 4-(2-Acetylaminopyridin-4-yl)-3-(4-fluorophenyl)-1-(1,4,5,6-tetrahydro-6-oxopyridazin-3-yl)-1H-pyrazole] — 0.21 log units lower, 8.68

tested on: LPS-induced TNF-α production in human PBMC; assay: Inhibition of TNF-α production in human PBMC (in vitro); assay type: cell-based; details: LPS 10 μg/ml, 18 hours, TNF-α ELISA, read-out: Inhibitory effect on LPS-induced TNF-α production in human PBMC IC50 value
Procedure: Test Example 2 Inhibition of TNF-α Production in Human PBMC (In Vitro)
Test was carried out according to the method of Welker et al. (Int. Arch. Allergy Immunol., 109, 110-115 (1996).
Heparin-added blood collected from healthy volunteer with consent was underlayed with a specific gravity-separating solution (Lymphoprep; available from Daiichi Pure Chemicals Co., Ltd.), subjected to centrifugation (800×g, 25 minutes), and a mononuclear cell layer was recovered. The obtained mononuclear cells (human PBMC) were washed twice with PBS (available from SIGMA), and resuspended in 1% FCS-containing RPMI aqueous solution (available from GIBCO) so that the cells became 5×10^6 cells/mL. The thus obtained cell suspension was diluted 10-fold with 1% FCS-containing RPMI medium, DMSO (or the compound to be tested) with a final concentration of 0.5% was added thereto, and cultured at 37° C. in 5% CO2 for 1 hour. After that, LPS (derived from E. Coli 055:5B, available from SIGMA) solution prepared by PBS was added so that the final concentration thereof being 10 μg/ml, and cultivation was carried out for further 18 hours. After the cultivation, culture medium was subjected to centrifugation (800×g, 10 minutes), and a concentration of TNF-α produced in the supernatant was measured by an enzyme-linked immunosorbent assay (ELISA) kit (TNF-α ELISA Kit, available from R&D). The concentration (IC50 value) of the test compound for inhibiting 50% of TNF-α production was calcualted by using XL-fit (available from IDBS).

Point of comparison: Nc1cc(-c2cn(C3=NNC(=O)CC3)nc2-c2ccccc2F)ccn1 [Example 55, 4-(2-Aminopyridin-4-yl)-3-(2-fluorophenyl)-1-(1,4,5,6-tetrahydro-6-oxopyridazin-3-yl)-1H-pyrazole], pIC50 7.44. Against it:
- Nc1cc(-c2cn(-c3cc(N)c(=O)[nH]n3)nc2-c2ccc(F)cc2)ccn1 [Example 4, 1-(5-Amino-1,6-dihydro-6-oxopyridazin-3-yl)-4-(2-aminopyridin-4-yl)-3-(4-fluorophenyl)-1H-pyrazole] — within 0.2 log units, 7.55
- O=c1ccc(-n2cc(-c3ccnc(NCC(F)(F)F)c3)c(-c3ccc(F)cc3)n2)n[nH]1 [Example 28, 3-(4-fluorophenyl)-1-(1,6-dihydro-6-oxopyridazin-3-yl)-4-[2-(2,2,2-trifluoroethyl)aminopyridin-4-yl]-1H-pyrazole] — 0.71 log units higher, 8.15
- CC(=O)Nc1cc(-c2cn(-c3ccc(=O)[nH]n3)nc2-c2ccccc2F)ccn1 [Example 35, 4-(2-Acetylaminopyridin-4-yl)-3-(2-fluorophenyl)-1-(1,6-dihydro-6-oxopyridazin-3-yl)-1H-pyrazole] — 0.78 log units higher, 8.22
- O=C(Nc1cc(-c2cn(-c3ccc4nncn4n3)nc2-c2ccc(F)cc2)ccn1)C1CC1 [Example 43, 4-(2-Cyclopropylcarbonylaminopyridin-4-yl)-3-(4-fluorophenyl)-1-([1,2,4]triazolo[4,3-b]pyridazin-6-yl)-1H-pyrazole] — 0.41 log units higher, 7.85
- O=C1CCC(n2cc(-c3ccnc(NCC(F)(F)F)c3)c(-c3ccccc3F)n2)=NN1 [Example 61, 3-(2-Fluorophenyl)-1-(1,4,5,6-tetrahydro-6-oxopyridazin-3-yl)-4-[2-(2,2,2-trifluoroethyl)aminopyridin-4-yl]-1H-pyrazole] — 0.96 log units higher, 8.40
- O=C1CCC(n2cc(-c3ccnc(NC(=O)C4CC4)c3)c(-c3ccccc3F)n2)=NN1 [Example 65, 4-(2-Cyclopropylcarbonylaminopyridin-4-yl)-3-(2-fluorophenyl)-1-(1,4,5,6-tetrahydro-6-oxopyridazin-3-yl)-1H-pyrazole] — 0.38 log units higher, 7.82

tested on: cytokine (IL-1β and TNF-α) induced IL-6 production; assay: Inhibition of IL-6 production in rat (in vivo); details: LEW rats, 3 mg/Kg oral, 1 hour before IL-1β/TNF-α i.v., serum IL-6 two hours later
Procedure: Test Example 3 Inhibition of IL-6 Production in Rat (In Vivo)
A cytokine mixed solution of IL-1β and TNF-α was intravenously injected to rats to induce production of IL-6. A mixed solution of IL-1β (available from R&D) (4 μg/ml) and TNF-α (available from R&D) (2 μg/ml) dissolved in PBS was administered to tail vein of LEW series rats (female, body weight: about 140 to 170 g, available from Charles River Japan, Inc.) fasted overnight with a ratio of 1 ml/kg of the body weight. Two hours later, blood was collected from the neck vein under ether anesthesia. The collected blood was centrifuged under the conditions of 20° C. and 10,000×g to separate serum. IL-6 concentration in the serum was measured by using an enzyme-linked immunosorbent assay (ELISA) kit (IL-6 ELISA KIT, available from R&D).
The test compound or the vehicle was orally administered with a dose of 10 ml/kg of the body weight before 1 hour of the injection of the cytokine mixed solution. The control group to which the vehicle was administered and the group of the compound to be tested were each 5 rats per group. An inhibitory ratio of the group of the compound to be tested based on control group was calculated.

Point of comparison: Nc1cc(-c2cn(-c3ccc(=O)[nH]n3)nc2-c2ccccc2)ccn1 [Example 20, 4-(2-Aminopyridin-4-yl)-1-(1,6-dihydro-6-oxopyridazin-3-yl)-3-phenyl-1H-pyrazole], “Rat cytokine induced IL-6 production inhibiting ratio (%) @3 mg/Kg” value 78%. Against it:
- CNc1cc(-c2cn(-c3ccc(=O)[nH]n3)nc2-c2ccc(F)cc2)ccn1 [Example 3, 3-(4-Fluorophenyl)-1-(1,6-dihydro-6-oxopyridazin-3-yl)-4-(2-methylaminopyridin-4-yl)-1H-pyrazole] — higher, 81%
